Several values for one entry are separate records, joined by “and”; a condition that tells them apart may be missing. Equal entries are not always repeated. Where two headings read alike, the source gives them in different places.
How the values were obtained:
HDAC1 [1] = biological target: T1, HDAC1 (Homo sapiens, UniProt Q13547); assay: HDAC1 (ZMAL) fluorogenic activity assay; format: biochemical; details: read-out: HDAC1 (ZMAL) percent enzyme inhibition
T1 construct: purchased BPS Bioscience 50051

HDAC6 [2] = biological target: T2, HDAC6 (Homo sapiens, UniProt Q9UBN7); assay: HDAC6 (ZMAL) fluorogenic activity assay; format: biochemical; details: read-out: HDAC6 (ZMAL) percent enzyme inhibition
T2 construct: purchased BPS Bioscience 50006
T2 sequence (Q9UBN7 1-1215): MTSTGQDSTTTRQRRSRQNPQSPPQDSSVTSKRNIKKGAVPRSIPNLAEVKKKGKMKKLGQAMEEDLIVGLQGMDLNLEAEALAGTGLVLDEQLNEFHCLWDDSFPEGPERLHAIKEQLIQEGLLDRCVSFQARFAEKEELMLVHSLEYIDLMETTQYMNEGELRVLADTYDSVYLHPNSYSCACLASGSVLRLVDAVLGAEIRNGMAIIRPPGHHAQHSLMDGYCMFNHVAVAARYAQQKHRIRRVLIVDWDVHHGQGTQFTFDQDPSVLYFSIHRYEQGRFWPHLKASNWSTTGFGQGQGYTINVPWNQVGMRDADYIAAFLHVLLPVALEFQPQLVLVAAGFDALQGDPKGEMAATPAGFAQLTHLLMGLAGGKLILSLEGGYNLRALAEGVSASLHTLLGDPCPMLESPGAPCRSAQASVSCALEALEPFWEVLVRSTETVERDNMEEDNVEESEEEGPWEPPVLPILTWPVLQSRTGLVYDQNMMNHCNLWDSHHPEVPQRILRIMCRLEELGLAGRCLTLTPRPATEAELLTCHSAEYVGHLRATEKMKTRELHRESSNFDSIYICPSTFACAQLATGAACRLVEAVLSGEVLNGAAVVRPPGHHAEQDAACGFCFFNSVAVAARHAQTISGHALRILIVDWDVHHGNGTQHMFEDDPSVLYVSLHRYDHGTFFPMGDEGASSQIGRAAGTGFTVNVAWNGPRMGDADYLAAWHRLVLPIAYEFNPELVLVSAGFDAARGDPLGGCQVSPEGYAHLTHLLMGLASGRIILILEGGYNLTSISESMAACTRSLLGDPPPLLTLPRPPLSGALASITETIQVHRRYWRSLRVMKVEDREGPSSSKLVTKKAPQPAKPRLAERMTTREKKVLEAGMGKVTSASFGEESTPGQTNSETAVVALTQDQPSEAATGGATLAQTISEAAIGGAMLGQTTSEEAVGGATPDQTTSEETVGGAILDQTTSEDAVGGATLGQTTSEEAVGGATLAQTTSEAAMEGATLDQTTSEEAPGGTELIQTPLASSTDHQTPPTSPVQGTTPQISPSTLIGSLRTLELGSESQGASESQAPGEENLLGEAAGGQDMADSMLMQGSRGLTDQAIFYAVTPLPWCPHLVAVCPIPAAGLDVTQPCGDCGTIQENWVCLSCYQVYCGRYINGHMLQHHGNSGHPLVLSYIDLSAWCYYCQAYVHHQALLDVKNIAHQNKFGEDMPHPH

zebrafish HDAC10 = biological target: T3, zebrafish HDAC10 (Danio rerio, UniProt F1QCV2); assay: Zebrafish HDAC10 assay (zHDAC10), Ac-spermidine-AMC substrate; format: biochemical; details: read-out: zHDAC10 percent enzyme inhibition
T3 sequence (F1QCV2 1-675): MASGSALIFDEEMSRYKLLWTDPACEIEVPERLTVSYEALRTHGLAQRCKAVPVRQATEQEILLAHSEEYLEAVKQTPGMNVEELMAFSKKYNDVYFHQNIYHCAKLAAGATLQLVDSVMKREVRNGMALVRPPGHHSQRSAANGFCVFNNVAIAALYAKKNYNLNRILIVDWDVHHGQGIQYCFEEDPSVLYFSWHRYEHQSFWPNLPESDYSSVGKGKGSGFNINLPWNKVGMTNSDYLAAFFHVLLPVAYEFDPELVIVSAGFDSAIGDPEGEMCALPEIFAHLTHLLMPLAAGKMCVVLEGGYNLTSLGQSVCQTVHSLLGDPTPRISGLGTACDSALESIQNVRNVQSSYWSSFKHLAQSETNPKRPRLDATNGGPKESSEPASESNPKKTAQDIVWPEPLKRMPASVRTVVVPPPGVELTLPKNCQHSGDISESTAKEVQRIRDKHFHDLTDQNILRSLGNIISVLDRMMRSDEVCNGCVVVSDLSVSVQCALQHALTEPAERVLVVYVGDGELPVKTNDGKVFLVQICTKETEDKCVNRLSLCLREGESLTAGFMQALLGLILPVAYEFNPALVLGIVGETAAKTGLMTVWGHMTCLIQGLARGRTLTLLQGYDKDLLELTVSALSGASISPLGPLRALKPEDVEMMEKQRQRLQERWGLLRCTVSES

[3] = biological target: T4, HDAC10-nanoluciferase fusion in HeLa cells (Homo sapiens, UniProt Q969S8); assay: BRET intracellular target engagement assay, HDAC10; details: for HDAC10/6 fold selectivity (BRET): HDAC10 over HDAC6, from BRET
T4 sequence (Q969S8 1-669): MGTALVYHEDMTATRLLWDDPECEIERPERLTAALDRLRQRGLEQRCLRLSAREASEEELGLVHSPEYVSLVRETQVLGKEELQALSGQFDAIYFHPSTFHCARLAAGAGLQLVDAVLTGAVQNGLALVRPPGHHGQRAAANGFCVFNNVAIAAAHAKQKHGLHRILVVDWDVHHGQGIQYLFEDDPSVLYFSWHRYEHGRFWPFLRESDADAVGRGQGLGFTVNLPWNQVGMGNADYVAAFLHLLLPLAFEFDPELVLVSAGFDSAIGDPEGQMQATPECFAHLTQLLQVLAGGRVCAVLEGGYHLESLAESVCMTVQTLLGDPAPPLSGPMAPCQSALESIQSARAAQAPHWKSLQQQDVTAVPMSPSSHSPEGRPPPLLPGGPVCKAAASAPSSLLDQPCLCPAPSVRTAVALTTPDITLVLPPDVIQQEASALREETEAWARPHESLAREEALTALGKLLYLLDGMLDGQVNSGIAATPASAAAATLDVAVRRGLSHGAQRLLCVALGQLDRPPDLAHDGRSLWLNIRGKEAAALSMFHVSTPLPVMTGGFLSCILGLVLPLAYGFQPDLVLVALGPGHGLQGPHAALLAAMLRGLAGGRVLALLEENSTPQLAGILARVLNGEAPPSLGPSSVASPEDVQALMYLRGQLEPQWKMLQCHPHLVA

HDAC8 [4] = biological target: T5, HDAC8 (Homo sapiens, UniProt Q9BY41); assay: HDAC8 (FDL) Fluor de Lys assay; format: biochemical; design: obtained from C; Romier (academic laboratory, not a vendor); details: read-out: HDAC8 (FDL) percent enzyme inhibition
T5 sequence (Q9BY41 1-377): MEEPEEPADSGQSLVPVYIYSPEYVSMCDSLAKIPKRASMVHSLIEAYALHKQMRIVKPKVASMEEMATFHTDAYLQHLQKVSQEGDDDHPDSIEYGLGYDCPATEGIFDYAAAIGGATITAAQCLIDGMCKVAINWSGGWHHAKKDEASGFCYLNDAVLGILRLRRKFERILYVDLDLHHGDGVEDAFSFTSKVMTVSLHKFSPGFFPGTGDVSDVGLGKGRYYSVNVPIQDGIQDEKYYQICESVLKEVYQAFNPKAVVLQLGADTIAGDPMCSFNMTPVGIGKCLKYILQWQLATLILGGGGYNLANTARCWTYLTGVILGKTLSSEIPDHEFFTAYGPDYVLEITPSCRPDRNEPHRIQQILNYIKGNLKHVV

HDAC1 [5] = biological target: T1, HDAC1; assay: HDAC-Glo I/II assay, HDAC1; format: biochemical; details: recombinant human HDAC1, HDAC-Glo; read-out: pIC50 HDAC1 Glo (converted)
HDAC2 = biological target: T6, HDAC2 (Homo sapiens, UniProt Q92769); assay: HDAC-Glo I/II assay, HDAC2; format: biochemical; details: recombinant human HDAC2, HDAC-Glo; read-out: pIC50 HDAC2 Glo (converted)
T6 construct: purchased BPS Bioscience 50002

HDAC3/NcoR2 complex = biological target: T7, HDAC3/NcoR2 complex (Homo sapiens, UniProt O15379); assay: HDAC-Glo I/II assay, HDAC3/NcoR2 complex; format: biochemical; details: recombinant human HDAC3/NcoR2 complex, read-out: pIC50 HDAC3 Glo (converted)
T7 construct: purchased BPS Bioscience 50003

HDAC6 [6] = biological target: T2, HDAC6; assay: HDAC-Glo I/II assay, HDAC6; format: biochemical; details: recombinant human HDAC6, HDAC-Glo; read-out: pIC50 HDAC6 Glo (converted)
TwinStrep-GST-HDAC10 = biological target: T8, TwinStrep-GST-HDAC10 (Homo sapiens, UniProt Q969S8); assay: HDAC10 TR-FRET assay (Tubastatin-AF647-Tracer displacement); format: binding
T8 construct: made in house; host or cells: Sf21 insect cells (baculovirus, pFastBac1)
T8 sequence (Q969S8 1-669): T4 sequence (Q969S8 1-669)

HDAC8 [7] = biological target: T5, HDAC8; assay: HDAC-Glo I/II assay, HDAC8; format: biochemical; design: purchased BPS Bioscience 50008; details: recombinant human HDAC8, HDAC-Glo; read-out: pIC50 HDAC8 Glo (converted)
[8] = biological target: T9, HDAC6 (2nd catalytic domain)-nanoluciferase fusion in HeLa cells (Homo sapiens, UniProt Q9UBN7); assay: BRET intracellular target engagement assay, HDAC6
T9 sequence (Q9UBN7 482-800 limits assumed): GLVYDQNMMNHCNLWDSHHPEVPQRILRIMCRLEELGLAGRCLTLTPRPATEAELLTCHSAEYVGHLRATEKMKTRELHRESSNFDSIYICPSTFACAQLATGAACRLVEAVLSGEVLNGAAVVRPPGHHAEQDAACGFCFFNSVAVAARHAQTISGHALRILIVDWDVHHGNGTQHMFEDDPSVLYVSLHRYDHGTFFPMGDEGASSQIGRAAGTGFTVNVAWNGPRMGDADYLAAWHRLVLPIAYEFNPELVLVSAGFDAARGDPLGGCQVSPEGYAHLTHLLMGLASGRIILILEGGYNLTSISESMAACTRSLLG

[9] = TR-FRET, 60 min at rt, read-out: pIC50 HDAC10 FRET (converted)

T1 sequence (Q13547 whole entry): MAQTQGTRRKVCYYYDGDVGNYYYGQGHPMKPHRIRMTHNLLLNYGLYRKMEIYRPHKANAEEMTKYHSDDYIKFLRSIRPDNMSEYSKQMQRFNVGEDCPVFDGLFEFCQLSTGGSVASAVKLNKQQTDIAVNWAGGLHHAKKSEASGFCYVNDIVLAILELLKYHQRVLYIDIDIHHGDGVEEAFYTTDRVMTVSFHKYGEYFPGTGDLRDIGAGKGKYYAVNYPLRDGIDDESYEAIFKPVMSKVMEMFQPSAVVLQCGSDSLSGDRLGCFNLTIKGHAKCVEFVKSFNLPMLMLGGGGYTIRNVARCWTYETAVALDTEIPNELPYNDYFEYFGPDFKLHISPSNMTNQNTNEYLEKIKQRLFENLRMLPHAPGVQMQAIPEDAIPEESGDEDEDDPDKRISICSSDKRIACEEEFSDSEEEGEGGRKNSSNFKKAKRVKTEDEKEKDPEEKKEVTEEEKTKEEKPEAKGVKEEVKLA
T7 sequence (O15379 whole entry): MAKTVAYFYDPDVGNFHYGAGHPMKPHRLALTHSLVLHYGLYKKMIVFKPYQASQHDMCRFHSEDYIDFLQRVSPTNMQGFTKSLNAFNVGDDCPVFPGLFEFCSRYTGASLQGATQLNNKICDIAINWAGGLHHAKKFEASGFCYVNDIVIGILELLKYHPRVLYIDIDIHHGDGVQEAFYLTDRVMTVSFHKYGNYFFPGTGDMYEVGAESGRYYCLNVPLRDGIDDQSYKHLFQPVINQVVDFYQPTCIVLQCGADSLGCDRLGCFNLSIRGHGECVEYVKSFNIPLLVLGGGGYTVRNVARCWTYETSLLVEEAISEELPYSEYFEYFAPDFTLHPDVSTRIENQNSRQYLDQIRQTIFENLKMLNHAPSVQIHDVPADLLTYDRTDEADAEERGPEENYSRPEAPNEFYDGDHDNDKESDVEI
T7 sequence (Q9Y618 395-489 partner limits assumed): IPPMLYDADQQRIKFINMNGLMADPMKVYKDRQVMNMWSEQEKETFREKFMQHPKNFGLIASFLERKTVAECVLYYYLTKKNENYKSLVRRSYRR
T6 sequence (Q92769 whole entry): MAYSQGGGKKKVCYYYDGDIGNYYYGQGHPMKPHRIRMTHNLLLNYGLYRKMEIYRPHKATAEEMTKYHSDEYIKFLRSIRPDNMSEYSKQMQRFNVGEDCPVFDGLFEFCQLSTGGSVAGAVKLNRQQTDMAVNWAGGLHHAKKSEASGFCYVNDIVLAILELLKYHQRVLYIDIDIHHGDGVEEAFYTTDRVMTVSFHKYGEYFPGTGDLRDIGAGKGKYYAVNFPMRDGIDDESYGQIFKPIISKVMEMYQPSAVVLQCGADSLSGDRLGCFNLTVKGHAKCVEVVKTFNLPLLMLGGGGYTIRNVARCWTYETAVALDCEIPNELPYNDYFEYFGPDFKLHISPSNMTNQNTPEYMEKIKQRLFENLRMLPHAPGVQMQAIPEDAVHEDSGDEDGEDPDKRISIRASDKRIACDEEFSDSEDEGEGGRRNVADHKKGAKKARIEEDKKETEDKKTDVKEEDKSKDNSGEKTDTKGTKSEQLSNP

Row | Structure (SMILES) | inhibition at 1 µM (HDAC1 [1]) [%] | inhibition at 10 µM (HDAC1 [1]) [%] | inhibition at 1 µM (HDAC6 [2]) [%] | inhibition at 10 µM (HDAC6 [2]) [%] | inhibition at 0.1 µM (zebrafish HDAC10) [%] | inhibition at 1 µM (zebrafish HDAC10) [%] | inhibition at 10 µM (zebrafish HDAC10) [%] | IC50 [3] [µM] | inhibition at 1 µM (HDAC8 [4]) [%] | inhibition at 10 µM (HDAC8 [4]) [%] | IC50 (HDAC1 [5]) [µM] | IC50 (HDAC2) [µM] | IC50 (HDAC3/NcoR2 complex) [µM] | IC50 (HDAC6 [6]) [µM] | IC50 (HDAC8 [7]) [µM] | IC50 [8] [µM] | further results
1 | O=C(NO)C1CCN(CCc2cccc(Br)c2)CC1 [DH71, 1-(3-Bromophenethyl)-N-hydroxypiperidine-4-carboxamide] | -5 | 6 | -2 | 28 | 0 | 10 | 61 | 0.391 | 27 | 70 |  |  |  |  |  |  | 
2 | O=C(NO)C1CCN(CCc2ccc(Br)cc2)CC1 [DH67, 1-(4-Bromophenethyl)-N-hydroxypiperidine-4-carboxamide] | 7 | 6 | -4 | 18 | 7 | 40 | 67 | 0.375 | 33 | 69 |  |  |  |  |  |  | 
3 | O=C(NO)C1CCN(CC(c2ccccc2)c2ccccc2)CC1 [DH40, 1-(2,2-Diphenylethyl)-N-hydroxypiperidine-4-carboxamide] | -7 | 8 | 19 | 65 | 1 | 9 | 27 |  | 42 | 75 |  |  |  |  |  |  | IC50 (TwinStrep-GST-HDAC10; two separate measurements, each made in triplicate, read-out: HDAC10 FRET IC50): 2.32 µM and 2.97 µM; inhibition at 50 µM (HDAC1 [1]; at 50 μM): 24%; inhibition at 50 µM (HDAC6 [2]; at 50 μM): 88%

Second part, led by results:

Row | inhibition at 1 µM (HDAC1 [1]) [%] | inhibition at 10 µM (HDAC1 [1]) [%] | inhibition at 1 µM (HDAC6 [2]) [%] | inhibition at 10 µM (HDAC6 [2]) [%] | inhibition at 0.1 µM (zebrafish HDAC10) [%] | inhibition at 1 µM (zebrafish HDAC10) [%] | inhibition at 10 µM (zebrafish HDAC10) [%] | IC50 [3] [µM] | inhibition at 1 µM (HDAC8 [4]) [%] | inhibition at 10 µM (HDAC8 [4]) [%] | IC50 (HDAC1 [5]) [µM] | IC50 (HDAC2) [µM] | IC50 (HDAC3/NcoR2 complex) [µM] | IC50 (HDAC6 [6]) [µM] | IC50 (HDAC8 [7]) [µM] | IC50 [8] [µM] | Structure (SMILES) | further results
4 |  |  |  |  |  |  |  | 1 |  |  | 79.4 | > 200 | ~200 | 5.01 | 7.94 | > 39.8 | CCCN(CCCC(=O)NO)CCC(=O)Nc1ccccc1 [DKFZ-716, 4-(Propyl(3-oxo-3-(phenylamino)propyl)amino)-N-hydroxybutanamide] | IC50 (TwinStrep-GST-HDAC10; [9]): 0.316 µM; HDAC10/6 fold selectivity (BRET) [3]: ~366 fold
5 |  |  |  |  |  |  |  | 0.501 |  |  | 25.1 | ~126 | ~100 | 1 | 2.51 | 10 | O=C(CCCN(CCC(=O)Nc1ccccc1)Cc1ccccc1)NO [DKFZ-718, 4-(Benzyl(3-oxo-3-(phenylamino)propyl)amino)-N-hydroxybutanamide] | IC50 (TwinStrep-GST-HDAC10; [9]): 2 µM; HDAC10/6 fold selectivity (BRET) [3]: 25 fold
6 |  |  |  |  |  |  |  |  |  |  | 2 | 3.98 |  | 0.631 | 0.794 | 3.98 | CN(CCCC(=O)NO)CCNC(=O)c1c2ccccc2cc2ccccc12 [DKFZ-771, N-(2-((4-(Hydroxyamino)-4-oxobutyl)(methyl)amino)ethyl)anthracene-9-carboxamide] | 
7 |  |  |  |  |  |  |  |  |  |  | 50.1 |  | > 100 | 12.6 | 25.1 | > 39.8 | CN(CCCC(=O)NO)CCCC(=O)Nc1ccccc1 [DKFZ-775, N-Hydroxy-4-(methyl(4-oxo-4-(phenylamino)butyl)amino)butanamide] | 

Source: patent publication US20220151962A1, “NOVEL INHIBITORS OF HISTONE DEACETYLASE 10” (Deutsches Krebsforschungszentrum, priority 2019, published 2022)
